# Results reported in US8324390B2, “Tetrazole-substituted anthranilamides as pesticides” (Bayer CropScience AG, priority 2008, dated 2012).
# Read-outs that look alike come from different tables or passages of the source.
# Experiments:
# [1] = log P determination by HPLC (EEC Directive 79/831 Annex V.A8); assay type: physicochemical
# Protocol: The measurements were carried out using an Agilent 1100 LC system with a 50*4.6 Zorbax Eclipse C18 1.8 μm column (oven temperature 55° C., flow rate 2.0 ml/min).
# The following mobile phases were used:
# Mobile phase A: acetonitrile+1000 μl of formic acid/l
# Mobile phase B: Millipore water+900 μl of formic acid/l
# [2] = tested on: caterpillars of the armyworm (Spodoptera frugiperda); assay: Spodoptera frugiperda test (SPODFR spray treatment); assay type: in vivo; details: Spodoptera frugiperda, foliar, read-out: effect in % (caterpillars killed)
# Excerpt: Solvent: 78.0 parts by weight of acetone
# [3] = tested on: larvae of the mustard beetle (Phaedon cochleariae); assay: Phaedon test (PHAECO spray treatment); details: Phaedon cochleariae, in Brassica rapa, foliar, read-out: effect in % (beetle larvae killed)
# [4] = by HPLC according to EEC Directive 79/831 Annex V.A8, read-out: log P
Structure (SMILES),chromatographic logP ([1]; log P),pest or weed control at 100 g/ha ([2]; in Zea mays) [%],pest or weed control at 100 g/ha [3] [%],"chromatographic logP [1, 4]","chromatographic logP ([1]; reversed-phase HPLC, Zorbax Eclipse C18 column, by HPLC according to EEC Directive 79/831 Annex V.A8, read-out: log P)","pest or weed control at 100 g/ha ([2]; application rate 100 g/ha, maize leaf discs) [%]"
CNC(=O)c1cc(C#N)cc(C)c1NC(=O)c1cc(Cn2nnc(C(C)(C)C)n2)nn1-c1ncccc1Cl [Example 101],2.62,≥ 80,≥ 80,–,–,–
CNC(=O)c1cc(Cl)cc(C)c1NC(=O)c1cc(Cn2nnc(C(C)(C)C)n2)nn1-c1ncccc1Cl [Example 103],3.02,≥ 80,≥ 80,–,–,–
Cc1cc(Cl)cc(C(=O)NC(C)(C)C)c1NC(=O)c1cc(Cn2nnc(C(F)(F)C(F)(F)C(F)(F)F)n2)nn1-c1ncccc1Cl [Example 107],–,≥ 80,≥ 80,4.6,–,–
Cc1cc(C#N)cc(C(=O)NC(C)(C)C)c1NC(=O)c1cc(Cn2nnc(C(F)(F)C(F)(F)C(F)(F)F)n2)nn1-c1ncccc1Cl [Example 108],–,≥ 80,≥ 80,4.16,–,–
Cc1cc(I)cc(C(=O)NC(C)C)c1NC(=O)c1cc(Cn2nnc(C(F)(F)C(F)(F)C(F)(F)F)n2)nn1-c1ncccc1Cl [Example 109],–,≥ 80,≥ 80,4.48,–,–
Cc1cc(I)cc(C(N)=O)c1NC(=O)c1cc(Cn2nnc(C(F)(F)C(F)(F)C(F)(F)F)n2)nn1-c1ncccc1Cl [Example 110],–,≥ 80,≥ 80,3.7,–,–
Cc1cc(I)cc(C(=O)NC2CC2)c1NC(=O)c1cc(Cn2nnc(C(F)(F)C(F)(F)C(F)(F)F)n2)nn1-c1ncccc1Cl [Example 111],–,≥ 80,≥ 80,4.23,–,–
CNC(=O)c1cc(I)cc(C)c1NC(=O)c1cc(Cn2nnc(C(F)(F)C(F)(F)C(F)(F)F)n2)nn1-c1ncccc1Cl [Example 112],–,≥ 80,≥ 80,3.99,–,–
Cc1cc(F)cc(C(=O)NC(C)(C)C)c1NC(=O)c1cc(Cn2nnc(C(F)(F)F)n2)nn1-c1ncccc1Cl [Example 115],3.51,≥ 80,≥ 80,–,–,–
Cc1cc(C#N)cc(C(=O)NCC(C)(C)CF)c1NC(=O)c1cc(Cn2nnc(C(F)(F)F)n2)nn1-c1ncccc1Cl [Example 116],3.35,≥ 80,≥ 80,–,–,–
CCC(COC(F)(F)F)NC(=O)c1cc(C#N)cc(C)c1NC(=O)c1cc(Cn2nnc(C(F)(F)F)n2)nn1-c1ncccc1Cl (stereo not drawn) [Example 117],–,–,≥ 80,–,3.74,≥ 80
Cc1cc(C)c(NC(=O)c2cc(Cn3nnc(C(F)(F)F)n3)nn2-c2ncccc2Cl)c(C(=O)NC2CC2)c1 [Example 119],3.04,≥ 80,≥ 80,–,–,–
Cc1cc(I)cc(C(=O)NC(C)(C)C)c1NC(=O)c1cc(Cn2nnc(C(F)(F)C(F)(F)C(F)(F)F)n2)nn1-c1ncccc1Cl [Example 121],–,≥ 80,≥ 80,4.86,–,–
Cc1cc(C#N)cc(C(=O)NCCCN)c1NC(=O)c1cc(Cn2nnc(C(F)(F)F)n2)nn1-c1ncccc1Cl [Example 124],1.63,≥ 80,≥ 80,–,–,–
CNC(=O)c1cc(Cl)cc(C)c1NC(=O)c1cc(Cn2nnc(C(F)(F)C(F)(F)F)n2)nn1-c1ncccc1Cl [Example 125],3.39,≥ 80,≥ 80,–,–,–
Cc1cc(Cl)cc(C(=O)NC(C)C2CC2)c1NC(=O)c1cc(Cn2nnc(C(F)(F)C(F)(F)F)n2)nn1-c1ncccc1Cl (stereo not drawn) [Example 126],4.25,≥ 80,≥ 80,–,–,–
Cc1cc(Cl)cc(C(=O)NC2CC2)c1NC(=O)c1cc(Cn2nnc(C(F)(F)C(F)(F)F)n2)nn1-c1ncccc1Cl [Example 127],3.7,≥ 80,≥ 80,–,–,–
CCNC(=O)c1cc(Cl)cc(C)c1NC(=O)c1cc(Cn2nnc(C(F)(F)C(F)(F)F)n2)nn1-c1ncccc1Cl [Example 128],3.65,≥ 80,≥ 80,–,–,–
Cc1cc(Cl)cc(C(N)=O)c1NC(=O)c1cc(Cn2nnc(C(F)(F)C(F)(F)F)n2)nn1-c1ncccc1Cl [Example 130],3.15,≥ 80,≥ 80,–,–,–
Cc1cc(Cl)cc(C(=O)NCC2CC2)c1NC(=O)c1cc(Cn2nnc(C(F)(F)C(F)(F)F)n2)nn1-c1ncccc1Cl [Example 131],3.93,≥ 80,≥ 80,–,–,–

Structure (SMILES),chromatographic logP ([1]; log P),pest or weed control at 100 g/ha ([2]; in Zea mays) [%],pest or weed control at 100 g/ha [3] [%],"chromatographic logP [1, 4]","chromatographic logP ([1]; reversed-phase HPLC, Zorbax Eclipse C18 column, by HPLC according to EEC Directive 79/831 Annex V.A8, read-out: log P)","pest or weed control at 100 g/ha ([2]; application rate 100 g/ha, maize leaf discs) [%]"
Cc1cc(Cl)cc(C(=O)NC2CCC2)c1NC(=O)c1cc(Cn2nnc(C(F)(F)C(F)(F)F)n2)nn1-c1ncccc1Cl [Example 132],4.03,≥ 80,≥ 80,–,–,–
Cc1cc(C#N)cc(C(=O)NC(C)C)c1NC(=O)c1cc(Cn2nnc(C(F)(F)C(F)(F)F)n2)nn1-c1ncccc1Cl [Example 135],3.55,≥ 80,≥ 80,–,–,–
Cc1cc(C#N)cc(C(=O)NCC2CC2)c1NC(=O)c1cc(Cn2nnc(C(F)(F)C(F)(F)F)n2)nn1-c1ncccc1Cl [Example 138],3.56,≥ 80,≥ 80,–,–,–
Cc1cc(C#N)cc(C(=O)NC2CCC2)c1NC(=O)c1cc(Cn2nnc(C(F)(F)C(F)(F)F)n2)nn1-c1ncccc1Cl [Example 139],3.61,≥ 80,≥ 80,–,–,–
CNC(=O)c1cc(I)cc(C)c1NC(=O)c1cc(Cn2nnc(C(F)(F)C(F)(F)F)n2)nn1-c1ncccc1Cl [Example 140],3.64,≥ 80,≥ 80,–,–,–
Cc1cc(I)cc(C(=O)NC(C)C2CC2)c1NC(=O)c1cc(Cn2nnc(C(F)(F)C(F)(F)F)n2)nn1-c1ncccc1Cl (stereo not drawn) [Example 141],4.42,≥ 80,≥ 80,–,–,–
Cc1cc(I)cc(C(=O)NC(C)C)c1NC(=O)c1cc(Cn2nnc(C(F)(F)C(F)(F)F)n2)nn1-c1ncccc1Cl [Example 142],4.19,≥ 80,≥ 80,–,–,–
CNC(=O)c1cc(Br)cc(C)c1NC(=O)c1cc(Cn2nnc(C(F)(F)C(F)(F)F)n2)nn1-c1ncccc1Cl [Example 143],3.5,≥ 80,≥ 80,–,–,–
Cc1cc(Br)cc(C(=O)NC2CC2)c1NC(=O)c1cc(Cn2nnc(C(F)(F)C(F)(F)F)n2)nn1-c1ncccc1Cl [Example 145],3.74,≥ 80,≥ 80,–,–,–
Cc1cc(Br)cc(C(=O)NC(C)C)c1NC(=O)c1cc(Cn2nnc(C(F)(F)C(F)(F)F)n2)nn1-c1ncccc1Cl [Example 146],3.95,≥ 80,≥ 80,–,–,–
CNC(=O)c1cc(F)cc(C)c1NC(=O)c1cc(Cn2nnc(C(F)(F)C(F)(F)F)n2)nn1-c1ncccc1Cl [Example 147],3.09,≥ 80,≥ 80,–,–,–
Cc1cc(F)cc(C(=O)NC(C)C2CC2)c1NC(=O)c1cc(Cn2nnc(C(F)(F)C(F)(F)F)n2)nn1-c1ncccc1Cl (stereo not drawn) [Example 148],3.8,≥ 80,≥ 80,–,–,–
Cc1cc(F)cc(C(=O)NC(C)C)c1NC(=O)c1cc(Cn2nnc(C(F)(F)C(F)(F)F)n2)nn1-c1ncccc1Cl [Example 149],3.59,≥ 80,≥ 80,–,–,–
CC(NC(=O)c1cc(Cl)cc(Cl)c1NC(=O)c1cc(Cn2nnc(C(F)(F)C(F)(F)F)n2)nn1-c1ncccc1Cl)C1CC1 (stereo not drawn) [Example 150],4.12,≥ 80,≥ 80,–,–,–
CCNC(=O)c1cc(Cl)cc(Cl)c1NC(=O)c1cc(Cn2nnc(C(F)(F)C(F)(F)F)n2)nn1-c1ncccc1Cl [Example 152],3.57,≥ 80,≥ 80,–,–,–
NC(=O)c1cc(Cl)cc(Cl)c1NC(=O)c1cc(Cn2nnc(C(F)(F)C(F)(F)F)n2)nn1-c1ncccc1Cl [Example 155],3.13,≥ 80,≥ 80,–,–,–
O=C(NCC1CC1)c1cc(Cl)cc(Cl)c1NC(=O)c1cc(Cn2nnc(C(F)(F)C(F)(F)F)n2)nn1-c1ncccc1Cl [Example 156],3.88,≥ 80,≥ 80,–,–,–
O=C(NC1CCC1)c1cc(Cl)cc(Cl)c1NC(=O)c1cc(Cn2nnc(C(F)(F)C(F)(F)F)n2)nn1-c1ncccc1Cl [Example 157],3.92,≥ 80,≥ 80,–,–,–
CNC(=O)c1cc(Cl)cc(Cl)c1NC(=O)c1cc(Cn2nnnc2C(F)(F)F)nn1-c1ncccc1Cl [Example 184],2.63,≥ 80,≥ 80,–,–,–
